# Experimental data from patent US20210113501A1, “METHOD OF ADMINISTERING BETA-HYDROXY-BETA-METHYLBUTYRATE (HMB)” (Metabolic Technologies, Inc., priority 2009, published 2021).
# Assay: Study 1 blood chemistry
# Type: in vivo, human
# Conditions: for Gamma-glutamyl: in U/L (unit assumed)
# Experimental: Study 1 design. For study 1 the subjects reported to the laboratory in the morning following an overnight fast. Before ingestion of one of the supplemental treatments, a flexible sterile polyethylene catheter was inserted into a forearm vein using sterile procedures and a pre-ingestion blood sample was drawn. Subsequent blood samples were taken at 0, 2, 5, 10, 15, 25, 35, 45, 60, 90, 120 and 180 min after ingestion of the treatment. Plasma was separated and samples were stored frozen at −70° C. for analysis of HMB concentration. In addition, a portion of the pre-ingestion and 180 minute blood samples were used for measurements (LabCorp, Kansas City, Mo.) of glucose, uric acid, blood urea nitrogen (BUN), creatinine, sodium, potassium, chloride, carbon dioxide, phosphorous, protein, albumin, globulin, albumin:globulin ratio, total bilirubin, direct bilirubin, alkaline phosphatase, lactate dehydrogenase, aspartate aminotransferase (AST), alanine aminotransferase (ALT), gamma-glutamyl transpeptidase (GGT), iron binding capacity (TIBC), unsaturated iron binding capacity (UIBC), iron, iron saturation, total cholesterol, triglycerides, high density lipoprotein (HDL), low density lipoprotein (LDL), and cholesterol ratio. A complete blood count (CBC) was also performed before and after the 180 min treatment period. Subjects also completed a brief questionnaire to report any physical symptoms (such as nausea, headache, etc) they may have experienced during the experiment.
# The data were analyzed using a crossover design with Proc GLM in SAS. (45) For the timed sampling of plasma HMB a repeated measures polynomial model was used. The model included subject, order, and treatment main effects and time by treatment interaction where appropriate. For other parameters Proc GLM was also used with subject, order, and treatment main effects and the p values are reported for the treatment main effect. Statistical significance was determined for p<0.05 and a trend was determined for 0.05<p<0.10.
# [1] = After (180 min), listed as Free Acid Gel Swallow
# [2] = Before to After, listed as Free Acid Gel Swallow
# [3] = Before, listed as Free Acid Gel Swallow
smiles,measurement,setting,value
"CC(C)(O)CC(=O)O [HMB-Acid Gel Swallow, 3-hydroxy-3-methylbutyric acid]",Albumin,After (180 min),4.1 ± 0.2 g/dL
same,Direct Bilirubin,After (180 min),0.1 ± 0.01 mg/dL
same,A:G Ratio,[1],1.9 ± 0.1
same,Alanine Aminotransferase,[1],15.6 ± 1.3 IU/L
same,Alkaline Phosphatase,[1],64.4 ± 6.7 IU/L
same,Aspartate Aminotransferase,[1],23.1 ± 2.0 IU/L
same,Blood Urea Nitrogen,[1],14.4 ± 1.5 mg/dL
same,CO2,[1],24.3 ± 0.5 mEq/L
same,Chloride,[1],103.3 ± 0.5 mEq/L
same,Cholesterol Ratio,[1],3.3 ± 0.3
same,Creatinine,[1],0.9 ± 0.1 mg/dL
same,Globulin,[1],2.2 ± 0.1 g/dL
same,Glucose,[1],73.3 ± 4.1 mg/dL
same,HDL,[1],48.5 ± 3.7 mg/dL
same,Iron,[1],96.3 ± 17.3 µg/dL
same,Iron Binding Capacity,[1],333.4 ± 35.2 µg/dL
same,Iron Saturation,[1],33.5 ± 8.4%
same,LDL,[1],85.6 ± 4.1 mg/dL
same,Lactate Dehydrogenase,[1],166.3 ± 11.1 IU/L
same,Phosphorus,[1],3.4 ± 0.1 mg/dL
same,Potassium,[1],4.6 ± 0.3 mEq/L
same,Protein,[1],6.3 ± 0.2 g/dL
same,Sodium,[1],138.3 ± 0.9 mEq/L
same,Total Bilirubin,[1],0.5 ± 0.07 mg/dL
same,Total Cholesterol,[1],153.3 ± 5.6 mg/dL
same,Triglycerides,[1],87.5 ± 14.8 mg/dL
same,UIBC,[1],237.1 ± 49.2 µg/dL
same,Uric Acid,[1],4.9 ± 0.4 mg/dL
same,Gamma-glutamyl,[1],13.5 ± 1.1
same,A:G Ratio,Before,1.9 ± 0.1
same,Creatinine,Before,1.0 ± 0.1 mg/dL
same,Direct Bilirubin,Before,0.1 ± 0.01 mg/dL
same,Total Bilirubin,Before,0.4 ± 0.05 mg/dL
same,A:G Ratio % Change,[2],0.0%
same,Alanine Aminotransferase % Change,[2],−1.6%
same,Albumin % Change,[2],1.9%
same,Alkaline Phosphatase % Change,[2],0.8%
same,Aspartate Aminotransferase % Change,[2],−3.6%
same,Blood Urea Nitrogen % Change,[2],−6.5%
same,CO2 % Change,[2],8.1%
same,Chloride % Change,[2],−0.4%
same,Cholesterol Ratio % Change,[2],−3.3%
same,Creatinine % Change,[2],−4.7%
same,Direct Bilirubin % Change,[2],7.9%
same,Gamma-glutamyl % Change,[2],−6.1%
same,Globulin % Change,[2],0.6%
same,Glucose % Change,[2],3.9%
same,HDL % Change,[2],3.5%
same,Iron % Change,[2],12.6%
same,Iron Binding Capacity % Change,[2],1.4%
same,Iron Saturation % Change,[2],9.4%
same,LDL % Change,[2],−3.1%
same,Lactate Dehydrogenase % Change,[2],−1.5%
same,Phosphorus % Change,[2],−15.6%
same,Potassium % Change,[2],11.4%
same,Protein % Change,[2],1.4%
same,Sodium % Change,[2],−0.2%
same,Total Bilirubin % Change,[2],23.3%
same,Total Cholesterol % Change,[2],−0.2%
same,Triglycerides % Change,[2],−4.1%
same,UIBC % Change,[2],−2.5%
same,Uric Acid % Change,[2],0.8%
same,Alanine Aminotransferase,[3],15.9 ± 1.5 IU/L
same,Albumin,[3],4.0 ± 0.2 g/dL
same,Alkaline Phosphatase,[3],63.9 ± 5.8 IU/L
same,Aspartate Aminotransferase,[3],24.0 ± 2.2 IU/L
same,Blood Urea Nitrogen,[3],15.4 ± 1.6 mg/dL
same,CO2,[3],22.4 ± 0.7 mEq/L
same,Chloride,[3],103.6 ± 0.8 mEq/L
same,Cholesterol Ratio,[3],3.4 ± 0.2
same,Globulin,[3],2.2 ± 0.1 g/dL
same,Glucose,[3],70.5 ± 1.7 mg/dL
same,HDL,[3],46.9 ± 3.4 mg/dL
same,Iron,[3],85.5 ± 19.2 µg/dL
same,Iron Binding Capacity,[3],328.6 ± 31.0 µg/dL
same,Iron Saturation,[3],30.6 ± 9.4%
same,LDL,[3],88.4 ± 3.0 mg/dL
same,Lactate Dehydrogenase,[3],168.8 ± 10.4 IU/L
same,Phosphorus,[3],4.0 ± 0.1 mg/dL
same,Potassium,[3],4.2 ± 0.1 mEq/L
same,Protein,[3],6.2 ± 0.2 g/dL
same,Sodium,[3],138.5 ± 1.1 mEq/L
same,Total Cholesterol,[3],153.5 ± 5.3 mg/dL
same,Triglycerides,[3],91.3 ± 17.0 mg/dL
same,UIBC,[3],243.1 ± 47.4 µg/dL
same,Uric Acid,[3],4.9 ± 0.4 mg/dL
same,Gamma-glutamyl,[3],14.4 ± 1.6
